From ChEMBL document CHEMBL5665443, “Enzyme Inhibitor Single Concentration assay results for EUbOPEN Chemogenomics Library” (2024)
Where a SMILES comes first, the peptide text is derived from it.

What was measured:
Settings in all cases: Compound Concentration 10.0 uM, Hit No
[1] = target: T1, Adenine DNA glycosylase (Homo sapiens) (UniProt Q9UIF7);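 also: human MUTYH activity read as 594 nm fluorescence from cleavage and release of a quenched DNA duplex, coupled with APE1 for strand incision, lower signal meaning inhibition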
T1 sequence (whole entry): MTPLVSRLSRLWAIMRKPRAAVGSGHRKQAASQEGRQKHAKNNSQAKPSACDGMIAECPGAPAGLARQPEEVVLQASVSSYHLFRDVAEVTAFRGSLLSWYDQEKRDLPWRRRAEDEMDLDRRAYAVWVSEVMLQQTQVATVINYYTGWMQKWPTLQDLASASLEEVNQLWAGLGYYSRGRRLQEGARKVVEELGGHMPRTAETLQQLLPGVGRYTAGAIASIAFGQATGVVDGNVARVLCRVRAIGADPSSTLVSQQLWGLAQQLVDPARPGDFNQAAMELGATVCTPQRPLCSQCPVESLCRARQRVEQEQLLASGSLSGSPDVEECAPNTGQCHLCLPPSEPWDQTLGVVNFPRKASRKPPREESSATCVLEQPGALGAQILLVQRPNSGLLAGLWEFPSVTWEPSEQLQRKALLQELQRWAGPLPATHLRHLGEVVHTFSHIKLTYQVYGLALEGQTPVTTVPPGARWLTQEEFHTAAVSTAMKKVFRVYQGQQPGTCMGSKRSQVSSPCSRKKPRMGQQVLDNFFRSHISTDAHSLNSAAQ
Description: Inhibition of MUTYH by quantifying inhibition of MUTYH-mediated cleavage and dissociation of quenched duplex DNA oligonucleotides, measured as fluorescence at 594 nm. To generate a functional strand incision and increase turn-over this assay is coupled to APE1.

[2] = target: Endonuclease 8-like 1 (Homo sapiens) (UniProt Q96FI4);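 also: fluorescence at 594 nm from quenched duplex DNA oligonucleotides released by NEIL1 cleavage and strand separation, reported as reduction of this enzyme activity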
Description: Inhibition of NEIL1 by quantifying inhibition of NEIL1-mediated cleavage and dissociation of quenched duplex DNA oligonucleotides, measured as fluorescence at 594 nm.

[3] = target: Methyl-CpG-binding domain protein 4 (Homo sapiens) (UniProt O95243);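 also: MBD4 activity read as fluorescence at 594 nm from cleavage and release of a quenched duplex DNA oligonucleotide, with APE1 coupled to incise the strand and raise turnover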
Description: Inhibition of MBD4 by quantifying inhibition of MBD4-mediated cleavage and dissociation of quenched duplex DNA oligonucleotides, measured as fluorescence at 594 nm. To generate a functional strand incision and increase turn-over this assay is coupled to APE1.

[4] = target: T2, Endonuclease 8-like 2 (Homo sapiens) (UniProt Q969S2);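 also: fluorescence at 594 nm reports NEIL2 cutting and release of a quenched double-stranded DNA oligo substrate, reduced signal read as inhibition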
T2 sequence (whole entry): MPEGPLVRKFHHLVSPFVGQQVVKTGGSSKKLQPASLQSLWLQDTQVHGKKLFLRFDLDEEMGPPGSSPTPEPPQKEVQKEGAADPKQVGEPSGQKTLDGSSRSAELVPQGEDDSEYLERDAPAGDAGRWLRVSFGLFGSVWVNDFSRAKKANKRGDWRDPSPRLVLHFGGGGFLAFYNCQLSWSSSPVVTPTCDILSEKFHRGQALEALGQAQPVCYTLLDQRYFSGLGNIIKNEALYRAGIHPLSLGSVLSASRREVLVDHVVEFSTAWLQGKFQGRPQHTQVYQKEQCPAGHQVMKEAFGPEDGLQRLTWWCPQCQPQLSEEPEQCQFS
Description: Inhibition of NEIL2 by quantifying inhibition of NEIL2-mediated cleavage and dissociation of quenched duplex DNA oligonucleotides, measured as fluorescence at 594 nm.

[5] = target: Uracil-DNA glycosylase (Homo sapiens) (UniProt P13051);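 also: UNG excision on a quenched double-stranded DNA oligo probe, with APE1 added for strand incision and turnover, read as fluorescence at 594 nm as strands separate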
Description: Inhibition of UNG by quantifying inhibition of UNG-mediated cleavage and dissociation of quenched duplex DNA oligonucleotides, measured as fluorescence at 594 nm. To generate a functional strand incision and increase turn-over this assay is coupled to APE1.

[6] = target: N-glycosylase/DNA lyase (Homo sapiens) (UniProt O15527);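 also: OGG1 cleavage of a quenched duplex DNA oligonucleotide, coupled to APE1 for strand incision, read as fluorescence at 594 nm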
Description: Inhibition of OGG1 by quantifying inhibition of OGG1-mediated cleavage and dissociation of quenched duplex DNA oligonucleotides, measured as fluorescence at 594 nm. To generate a functional strand incision and increase turn-over this assay is coupled to APE1.

[7] = target: G/T mismatch-specific thymine DNA glycosylase (Homo sapiens) (UniProt Q13569);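 also: human TDG cleavage of quenched duplex DNA oligonucleotides coupled to APE1, strand release read as fluorescence at 594 nm, inhibition of TDG activity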
Description: Inhibition of TDG by quantifying inhibition of TDG-mediated cleavage and dissociation of quenched duplex DNA oligonucleotides, measured as fluorescence at 594 nm. To generate a functional strand incision and increase turn-over this assay is coupled to APE1.

[8] = target: DNA-3-methyladenine glycosylase (Homo sapiens) (UniProt P29372);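 also: enzyme assay where MPG cuts a quenched duplex DNA oligonucleotide probe, paired with APE1 for strand incision and turnover, read as fluorescence at 594 nm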
Description: Inhibition of MPG by quantifying inhibition of MPG-mediated cleavage and dissociation of quenched duplex DNA oligonucleotides, measured as fluorescence at 594 nm. To generate a functional strand incision and increase turn-over this assay is coupled to APE1.

[9] = target: T3, Endonuclease III-like protein 1 (Homo sapiens) (UniProt P78549);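 also: enzyme assay tracking NTHL1 cutting and release of a quenched double-stranded DNA oligo substrate, read as fluorescence at 594 nm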
T3 sequence (whole entry): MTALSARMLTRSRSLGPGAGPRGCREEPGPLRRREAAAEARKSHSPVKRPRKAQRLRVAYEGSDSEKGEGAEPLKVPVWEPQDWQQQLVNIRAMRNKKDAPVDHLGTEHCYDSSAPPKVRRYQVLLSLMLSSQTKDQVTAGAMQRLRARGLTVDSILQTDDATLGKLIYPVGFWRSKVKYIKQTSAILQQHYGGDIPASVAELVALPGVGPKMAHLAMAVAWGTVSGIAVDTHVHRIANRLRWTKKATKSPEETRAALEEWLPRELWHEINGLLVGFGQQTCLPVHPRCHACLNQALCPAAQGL
Description: Inhibition of NTHL1 by quantifying inhibition of NTHL1-mediated cleavage and dissociation of quenched duplex DNA oligonucleotides, measured as fluorescence at 594 nm.

[10] = target: T4, Single-strand selective monofunctional uracil DNA glycosylase (Homo sapiens) (UniProt Q53HV7);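 also: enzymatic SMUG1 assay coupled with APE1, reading fluorescence at 594 nm released when a quenched double-stranded DNA oligonucleotide substrate is cleaved and separated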
T4 sequence (whole entry): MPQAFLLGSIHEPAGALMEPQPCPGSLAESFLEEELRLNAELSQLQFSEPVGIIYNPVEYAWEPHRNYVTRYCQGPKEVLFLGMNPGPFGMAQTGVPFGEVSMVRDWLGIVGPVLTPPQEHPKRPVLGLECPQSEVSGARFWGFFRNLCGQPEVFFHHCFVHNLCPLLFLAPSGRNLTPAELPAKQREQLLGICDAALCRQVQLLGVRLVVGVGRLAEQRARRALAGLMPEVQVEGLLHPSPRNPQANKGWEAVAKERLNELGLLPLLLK
Description: Inhibition of SMUG1 by quantifying inhibition of SMUG1-mediated cleavage and dissociation of quenched duplex DNA oligonucleotides, measured as fluorescence at 594 nm. To generate a functional strand incision and increase turn-over this assay is coupled to APE1.

DNA-3-methyladenine glycosylase (Homo sapiens), sequence (P29372 whole entry): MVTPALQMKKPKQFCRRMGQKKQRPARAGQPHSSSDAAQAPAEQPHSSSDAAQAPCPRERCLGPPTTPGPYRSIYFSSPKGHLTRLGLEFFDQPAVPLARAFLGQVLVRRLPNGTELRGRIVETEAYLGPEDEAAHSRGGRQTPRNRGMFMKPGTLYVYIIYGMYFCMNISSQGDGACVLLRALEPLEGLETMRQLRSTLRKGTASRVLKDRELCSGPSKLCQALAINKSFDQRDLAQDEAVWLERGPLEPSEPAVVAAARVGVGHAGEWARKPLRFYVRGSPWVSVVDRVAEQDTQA
Uracil-DNA glycosylase (Homo sapiens), sequence (P13051 whole entry): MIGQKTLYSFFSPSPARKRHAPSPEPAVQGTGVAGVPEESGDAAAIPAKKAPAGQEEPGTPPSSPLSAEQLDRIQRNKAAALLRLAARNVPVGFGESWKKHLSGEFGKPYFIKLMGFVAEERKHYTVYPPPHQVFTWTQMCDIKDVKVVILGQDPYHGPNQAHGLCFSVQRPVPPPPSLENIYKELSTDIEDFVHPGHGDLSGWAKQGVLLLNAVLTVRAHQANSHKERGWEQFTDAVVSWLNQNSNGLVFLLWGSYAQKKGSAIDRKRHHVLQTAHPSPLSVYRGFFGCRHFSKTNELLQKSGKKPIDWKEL
G/T mismatch-specific thymine DNA glycosylase (Homo sapiens), sequence (Q13569 whole entry): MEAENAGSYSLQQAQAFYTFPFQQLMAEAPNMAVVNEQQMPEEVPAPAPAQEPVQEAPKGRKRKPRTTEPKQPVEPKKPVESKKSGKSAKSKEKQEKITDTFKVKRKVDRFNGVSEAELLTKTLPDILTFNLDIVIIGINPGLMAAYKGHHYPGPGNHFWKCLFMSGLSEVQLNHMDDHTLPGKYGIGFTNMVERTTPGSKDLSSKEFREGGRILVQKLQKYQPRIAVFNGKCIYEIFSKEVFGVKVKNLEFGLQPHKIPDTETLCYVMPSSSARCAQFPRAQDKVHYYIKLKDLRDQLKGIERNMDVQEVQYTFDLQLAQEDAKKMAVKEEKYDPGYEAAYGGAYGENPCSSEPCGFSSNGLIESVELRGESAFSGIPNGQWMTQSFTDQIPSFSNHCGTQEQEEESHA
Endonuclease 8-like 1 (Homo sapiens), sequence (Q96FI4 whole entry, the tested form may be a part): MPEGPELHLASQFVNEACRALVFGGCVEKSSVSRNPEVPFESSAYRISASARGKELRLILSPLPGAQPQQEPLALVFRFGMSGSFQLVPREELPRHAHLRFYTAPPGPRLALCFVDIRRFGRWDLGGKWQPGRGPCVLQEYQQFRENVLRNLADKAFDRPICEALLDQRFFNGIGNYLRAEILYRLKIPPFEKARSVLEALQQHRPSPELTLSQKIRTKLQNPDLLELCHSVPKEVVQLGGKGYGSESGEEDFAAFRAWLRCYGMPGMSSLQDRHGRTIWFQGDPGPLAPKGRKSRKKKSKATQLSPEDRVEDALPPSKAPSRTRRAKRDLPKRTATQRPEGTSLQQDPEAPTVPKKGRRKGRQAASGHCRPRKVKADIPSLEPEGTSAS
N-glycosylase/DNA lyase (Homo sapiens), sequence (O15527 whole entry): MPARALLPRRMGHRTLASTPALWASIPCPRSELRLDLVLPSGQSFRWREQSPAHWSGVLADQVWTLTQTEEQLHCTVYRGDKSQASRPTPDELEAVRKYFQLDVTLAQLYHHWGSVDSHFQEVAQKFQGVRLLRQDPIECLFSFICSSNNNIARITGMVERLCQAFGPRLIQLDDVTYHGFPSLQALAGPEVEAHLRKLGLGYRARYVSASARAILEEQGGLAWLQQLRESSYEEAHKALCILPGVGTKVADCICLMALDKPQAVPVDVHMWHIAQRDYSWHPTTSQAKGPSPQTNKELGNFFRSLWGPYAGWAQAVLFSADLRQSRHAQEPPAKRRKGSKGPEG
Methyl-CpG-binding domain protein 4 (Homo sapiens), sequence (O95243 whole entry, the tested form may be a part): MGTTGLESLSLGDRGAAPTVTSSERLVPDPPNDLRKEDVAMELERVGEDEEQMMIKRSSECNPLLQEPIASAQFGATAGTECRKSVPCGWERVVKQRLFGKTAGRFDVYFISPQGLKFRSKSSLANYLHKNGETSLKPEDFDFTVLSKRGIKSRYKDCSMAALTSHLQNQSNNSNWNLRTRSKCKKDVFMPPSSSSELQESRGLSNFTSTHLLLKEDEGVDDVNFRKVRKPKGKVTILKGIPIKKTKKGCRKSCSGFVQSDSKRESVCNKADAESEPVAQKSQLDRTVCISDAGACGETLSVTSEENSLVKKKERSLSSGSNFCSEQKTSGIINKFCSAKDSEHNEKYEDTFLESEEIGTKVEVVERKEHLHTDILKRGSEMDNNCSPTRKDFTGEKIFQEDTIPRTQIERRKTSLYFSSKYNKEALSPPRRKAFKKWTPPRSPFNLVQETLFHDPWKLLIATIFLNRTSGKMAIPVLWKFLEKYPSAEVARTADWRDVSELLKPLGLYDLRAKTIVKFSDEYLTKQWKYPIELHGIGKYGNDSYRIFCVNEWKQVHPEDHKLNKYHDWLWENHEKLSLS

Compound: COC(=O)c1cc2c(cn1)[nH]c1ccccc12
- inhibition [1]: 41.5%
- inhibition [2]: 5.05%
- inhibition [3]: 8.08%
- inhibition [4]: 22.6%
- inhibition [5]: -4.88%
- inhibition [6]: 0.163%
- inhibition [7]: 11%
- inhibition [8]: 11.4%
- inhibition [9]: 2.22%
- inhibition [10]: 2.02%

Compound: N#Cc1ccc(NC(=O)Nc2ccccc2Br)c2nn[nH]c12
- inhibition [1]: 35.7%
- inhibition [2]: 0.686%
- inhibition [3]: 21%
- inhibition [4]: 1.51%
- inhibition [5]: -8.36%
- inhibition [6]: -1.34%
- inhibition [7]: 26.3%
- inhibition [8]: -2.94%
- inhibition [9]: 9.25%
- inhibition [10]: 7.57%

Compound: O=C(COc1cccc2ccccc12)Nc1cc(Cl)ccc1C(=O)O
- inhibition [1]: 64.4%
- inhibition [2]: 6.38%
- inhibition [3]: 33.2%
- inhibition [4]: 5.25%
- inhibition [5]: 2.63%
- inhibition [6]: 24.8%
- inhibition [7]: 37.7%
- inhibition [8]: 16.5%
- inhibition [9]: 12.9%
- inhibition [10]: 8.57%

Compound: CN(C)C(=O)c1cc2cnc(Nc3ccc(N4CCNCC4)cn3)nc2n1C1CCCC1
- inhibition [1]: 16.4%
- inhibition [2]: 3.31%
- inhibition [3]: 24.6%
- inhibition [4]: -0.842%
- inhibition [5]: 8.98%
- inhibition [6]: 4.33%
- inhibition [7]: 57.4%
- inhibition [8]: 59.5%
- inhibition [9]: -3.4%
- inhibition [10]: 21.9%

Compound: COc1cc(Br)c(S(=O)(=O)Nc2ccc(C(F)(F)F)c(O[C@@H]3CCN(C)C3)c2)cc1OC
- inhibition [1]: -3.82%
- inhibition [2]: -6.66%
- inhibition [3]: -1.76%
- inhibition [4]: -4.68%
- inhibition [5]: -6.21%
- inhibition [6]: -7.69%
- inhibition [7]: -0.305%
- inhibition [8]: -9.93%
- inhibition [9]: 13.8%
- inhibition [10]: -0.0706%

Compound: COc1ccc(-c2csc(NC(=O)[C@H]3CCCCN3S(=O)(=O)c3ccc(C)cc3)n2)cc1
- inhibition [1]: 11.1%
- inhibition [2]: 4.6%
- inhibition [3]: 10.3%
- inhibition [4]: 3.47%
- inhibition [5]: -6.47%
- inhibition [6]: -5.94%
- inhibition [7]: 5.87%
- inhibition [8]: 12%
- inhibition [9]: 22%
- inhibition [10]: 12.1%

Compound: CC1(C)CN2C(CS/C(=N\C3CCCCC3)NC3CCCCC3)=CSC2=N1
- inhibition [1]: 4.05%
- inhibition [2]: 6.38%
- inhibition [3]: 7.88%
- inhibition [4]: -0.86%
- inhibition [5]: -3.07%
- inhibition [6]: 5.96%
- inhibition [7]: -0.781%
- inhibition [8]: 8.86%
- inhibition [9]: 11.3%
- inhibition [10]: -4.87%

Compound: CC(CNS(=O)(=O)C(C)C)c1ccc(-c2ccc(C#N)cc2)cc1 (stereo not given)
- inhibition [1]: -2.6%
- inhibition [2]: 12%
- inhibition [3]: 19.3%
- inhibition [4]: 0.669%
- inhibition [5]: -7.52%
- inhibition [6]: -4.77%
- inhibition [7]: 11.5%
- inhibition [8]: 23.5%
- inhibition [9]: 4.7%
- inhibition [10]: 7.84%

Compound: N/C(=N\C(=O)c1nc(Cl)c(N)nc1N)NCc1ccccc1
- inhibition [1]: 36.7%
- inhibition [2]: 9.94%
- inhibition [3]: 41.7%
- inhibition [4]: 15.2%
- inhibition [5]: 4.68%
- inhibition [6]: 16.3%
- inhibition [7]: 32.7%
- inhibition [8]: 25.3%
- inhibition [9]: 15.4%
- inhibition [10]: 7.5%

Compound: CC(C)c1cc(Br)c(NC(=O)Nc2cccnc2)c(Br)c1
- inhibition [1]: 0.0238%
- inhibition [2]: 3.27%
- inhibition [3]: 12.5%
- inhibition [4]: 7.55%
- inhibition [5]: -2.82%
- inhibition [6]: -2.73%
- inhibition [7]: 19.7%
- inhibition [8]: 14.7%
- inhibition [9]: -2.73%
- inhibition [10]: -3.86%

Compound: CC[C@H](C)[C@H](NC(=O)[C@H](Cc1ccc(O)cc1)NC(=O)[C@@H](NC(=O)[C@H](CCCNC(=N)N)NC(=O)[C@@H](N)CC(=O)O)C(C)C)C(=O)N[C@@H](Cc1cnc[nH]1)C(=O)N[C@H](C)C(=O)O (HELM PEPTIDE1{D.R.V.Y.I.H.[dA]}$$$$V2.0)
- inhibition [1]: -8.51%
- inhibition [2]: 9.79%
- inhibition [3]: 6.33%
- inhibition [4]: -1.88%
- inhibition [5]: -2.81%
- inhibition [6]: -9.35%
- inhibition [7]: 1.59%
- inhibition [8]: -4.39%
- inhibition [9]: 17.1%
- inhibition [10]: -8.77%

Compound: c1ccc2nc(N3CCNCC3)ccc2c1
- inhibition [1]: 11.1%
- inhibition [2]: 8.31%
- inhibition [3]: -0.572%
- inhibition [4]: 7.8%
- inhibition [5]: 1.1%
- inhibition [6]: -7.23%
- inhibition [7]: 12.3%
- inhibition [8]: -3.87%
- inhibition [9]: 13.8%
- inhibition [10]: 2.02%

Compound: Cc1cc(C)cc(C(=O)N(C)[C@H](Cc2ccc(-c3ccccc3)cc2)C(=O)N[C@@H](Cc2c[nH]c3ccccc23)C(=O)O)c1
- inhibition [1]: 76.9%
- inhibition [2]: -1.83%
- inhibition [3]: 60.3%
- inhibition [4]: 12.5%
- inhibition [5]: 6.08%
- inhibition [6]: 16.2%
- inhibition [7]: 48.4%
- inhibition [8]: 4.38%
- inhibition [9]: 2.66%
- inhibition [10]: 4.62%

Compound: CCOC(=O)N1CCC(c2cc(O)n3nc(C)c(-c4ccc(F)cc4)c3n2)CC1
- inhibition [1]: 75.7%
- inhibition [2]: 5.34%
- inhibition [3]: 40.6%
- inhibition [4]: 2.71%
- inhibition [5]: -0.428%
- inhibition [6]: -3.67%
- inhibition [7]: 48.9%
- inhibition [8]: 38.1%
- inhibition [9]: 11.3%
- inhibition [10]: 6.03%

Compound: Cn1nc(C(=O)NCc2ccc(C(=O)O)cc2)cc1-c1ccc2[nH]ccc2c1
- inhibition [1]: -5.73%
- inhibition [2]: 1.38%
- inhibition [3]: 70.9%
- inhibition [4]: -4.83%
- inhibition [5]: 0.276%
- inhibition [6]: 0.23%
- inhibition [7]: 56.9%
- inhibition [8]: 115%
- inhibition [9]: -3.92%
- inhibition [10]: 8.36%

Compound: Cc1cccc(NC(=O)CN2CCC(c3ccccn3)CC2)c1
- inhibition [1]: 18.5%
- inhibition [2]: -1.77%
- inhibition [3]: 8.44%
- inhibition [4]: -0.35%
- inhibition [5]: -6.98%
- inhibition [6]: 0.0304%
- inhibition [7]: 12.4%
- inhibition [8]: 7.82%
- inhibition [9]: 12.1%
- inhibition [10]: 0.438%

Compound: O=C(Nc1ccccc1Br)N[C@@H]1CCN(c2ccc(C(F)(F)F)cn2)C1
- inhibition [1]: 26.9%
- inhibition [2]: -1.77%
- inhibition [3]: 41.6%
- inhibition [4]: 2.71%
- inhibition [5]: 2.31%
- inhibition [6]: 3.57%
- inhibition [7]: 27.5%
- inhibition [8]: 35.3%
- inhibition [9]: 6.35%
- inhibition [10]: 15%

Compound: CCOC(=O)c1ccc(N2C(=O)C(O)=C(C(=O)c3ccc(OC)cc3)C2c2ccc(F)cc2)cc1 (stereo not given)
- inhibition [1]: 62.9%
- inhibition [2]: 11.9%
- inhibition [3]: 55.1%
- inhibition [4]: 0.414%
- inhibition [5]: 1.33%
- inhibition [6]: -5.97%
- inhibition [7]: 46.7%
- inhibition [8]: 15.7%
- inhibition [9]: 21.2%
- inhibition [10]: 1.4%

Compound: CCc1nnc(NS(=O)(=O)c2ccc(NC(=S)NC(=O)/C=C/c3ccc(F)cc3)cc2)s1
- inhibition [1]: 54.8%
- inhibition [2]: -4.5%
- inhibition [3]: 48%
- inhibition [4]: 9.5%
- inhibition [5]: 3.3%
- inhibition [6]: 12.1%
- inhibition [7]: 49.8%
- inhibition [8]: 31.8%
- inhibition [9]: 23.2%
- inhibition [10]: 24.8%

Compound: O=C(NCC(=O)N1CC[C@H](N[C@H]2CC[C@@](O)(c3ccc(-c4ncccn4)cn3)CC2)C1)c1cccc(C(F)(F)F)c1
- inhibition [1]: 10.3%
- inhibition [2]: 2.76%
- inhibition [3]: -4.26%
- inhibition [4]: 6.25%
- inhibition [5]: -9.06%
- inhibition [6]: 1.04%
- inhibition [7]: 24.3%
- inhibition [8]: -2.02%
- inhibition [9]: 0.458%
- inhibition [10]: 2.1%
